According to patent publication US10780139B1, “Hypericum revolutum extract as a vasodilator” (King Abdulaziz University, priority 2020, dated 2020):

Legend:
[1] = test system: PE pre-contracted isolated aorta; test: vasodilating activity, isolated artery technique (PE-precontracted isolated aorta); parameters: species or system Wistar rats; details: for vasodilation of PE precontracted isolated aortae: isolated compounds 1-10 μM cumulative, vs time control, p<0.05, FIG. 7-8
Method: Male Wistar rats 6-8 weeks old (180-200 g) (King Fahd Medical Research Center, King Abdulaziz University, Jeddah, Saudi Arabia) were used in this study. Clear polypropylene cages containing 4 rats each were used to house the animals and provided access to purified water and standard rodent pellets. The animal housing conditions applied were constant involving alternating 12 hours light and dark, a temperature of 22±3° C., a relative humidity of 50-60%, and adequate ventilation. Experimental protocol was approved by the Research Ethical Committee, Faculty of Pharmacy, King Abdulaziz University, Jeddah, Saudi Arabia (approval number 126-1439) and was conducted in accordance with the Saudi Arabia Research Bioethics and Regulations.
All animals used for the purpose of this study received a standard pellet diet and drinking water. Animals were killed by decapitation with rodent guillotine and the descending thoracic aorta was carefully excised and cleaned from fat and connective tissue.
(§1) The vasodilating activities of the methanol extract, fractions, and isolated compounds were studied using the isolated artery technique as previously described (El-Bassossy et al., 2013; El-Bassossy et al., 2016). Briefly, aorta was excised, cleaned of any fats and connective tissue, and cut into 3 mm rings. Each ring was suspended in channels filled with 25 ml of Krebs Henseleit buffer (118 mM NaCl, 4.8 mM KCl, 2.5 mM CaCl2), 1.2 mM MgSO4, 1.2 mM KH2PO4, 25 mM NaHCO3, and 11.1 mM glucose) maintained at 37° C. and continuously aerated with gas consisting of 95% oxygen and 5% carbon dioxide. The buffer solution in the channels was changed every 30 minutes.
(§2) The aortic rings were left to equilibrate for 20 minutes at a resting tension of 1500 mg±50. Primary contraction and relaxation of the aorta were then performed by adding PE (10^−5 M) followed by ACh […]. After the tension was returned to resting state, cumulative concentrations of the total extract, fractions (1-10 μg/ml) or the pure isolated compounds (1-10 μM) were added to the organ bath containing the isolated aortae precontracted with PE (10 μM). The decrease in tension was measured as a measure of vasodilation activities.
(§3) In all experiments, similar PE-precontraction tension was achieved before testing the vasodilating responses.

[2] = test system: PE pre-contracted endothelium-denuded aorta; test: vasodilating activity in endothelium-denuded PE-precontracted isolated aorta; parameters: species or system Wistar rats; details: isolated compounds, 10 μM, p<0.05; FIG. 7-8
Method: as §1, §2
In another set of experiments, endothelium was mechanically denuded in order to investigate its role in the vasodilation effect.
as §3

[3] = test system: vascular NO production (isolated aorta); test: NO production from isolated aorta, fluorescence probe DAF-FM; parameters: species or system Wistar rats; details: 10 μM; DAF-FM 2.5 μM; 37° C.; FIG. 9
Method: Induction of intracellular NO production from the isolated aorta by the total extract, fraction I or the pure isolated compounds was investigated using the fluorescence probe DAF-FM as described in previous work with some modifications (Ghareib et al., 2015). Similar to previous technique, the thoracic aorta was excised, cleaned of fats, and cut into approximately 6 mm pieces. Each piece was added to a separate well in a 96-well black plate, kept in dim light, containing KHB/DAF-FM (2.5 μM) mixture (37° C.) and prepared directly before commencement of the procedure. After 3 minutes, 100 μl were carefully drawn and transferred to the adjacent column of wells after which 10 μM ACh was added to one of the aortic segments and 10 μg/ml of the total extract or fraction I or 10 μM of the pure isolated compounds was added to the other wells. Again after 3 minutes, 100 μl were drawn from the wells with the aortae and transferred to the next column of wells. For the blank, a row was kept without an aorta for each concentration of ACh was treated in the same manner. The fluorescence intensity for the withdrawn volumes (and not the column containing the aortae) was then measured at λex=485 nm and […] with the use of Monochromator SPECTRAMAX® M3 plate reader (Molecular Devices, Sunnyvale, Calif., USA).

[4] = ROS scavenging ability, DPPH; details: DPPH 240 μM; 1, 3 and 10 μM; 10-minute reaction; FIG. 10
Method: The reactive oxygen species (ROS) scavenging ability of fraction I or pure isolated compounds was studied as previously reported with some modifications (Tarkhan et al., 2019). In a 96-well clear plate, the fraction I (1-10 μg/ml) or pure isolated compounds (1-10 μM) in methanol was added to DPPH solution (240 μM) in methanol/tris (1:1 v/v). For the time control (C), methanol was used instead of the fraction or compounds. DPPH was prepared immediately before addition to the plate. The absorbance was measured at 520 nm every minute for 10 minutes with the use of Monochromator SPECTRAMAX® M3 plate reader (Molecular Devices, Sunnyvale, Calif., USA).

Compound | vasodilation of PE precontracted isolated aortae [1] | vasodilation of PE-precontracted isolated aortae ([1]; maximal extent reached, 1-10 μM, FIG. 7B) [%] | effect of endothelial denudation on vasodilation activity [2] | vascular NO production (DAF-FM fluorescence) compared with control [3] | DPPH free radical scavenging activity [4]
CCC(C)C(=O)c1c(O)c(C)c(OCC=C(C)C)c(C(=O)CC(C)C)c1O (stereo not shown) [compound 1, 3,5-dihydroxy-6-methyl-1-[(3-methylbut-2-en-1-yl)oxy]-2-(3-methylbutyryl)-4-(2-methylbutyryl)-benzene] | concentration dependent vasodilation |  |  |  | 
CC(C)=CCC(=O)C1CC23CC(Cl)C(C)(C)OC2(C(O)C=C(C)C)C(=O)C(C(=O)C(C)C)(C3=O)C1(C)C (stereo not shown) [compound 2, 3-chloro-9a-(1-hydroxy-3-methylbut-2-en-1-yl)-8-isobutyryl-2,2,7,7-tetramethyl-6-(4-methylpent-3-enoyl)hexahydro-2H-4a,8-methanocyclohepta[b]pyran-9,10(9aH)-dione] | reached statistical significance at concentrations of 3 and 10 μM | 50 | completely blocked the vasodilation activity | induced NO production that reached statistical significance | 
CC[C@H](CC[C@@H](C)[C@H]1CC[C@H]2[C@@H]3CC=C4C[C@@H](O)CC[C@]4(C)[C@H]3CC[C@]12C)C(C)C [compound 3, β-sitosterol] | concentration dependent vasodilation |  | completely blocked the vasodilation activity | induced NO production that reached statistical significance | 
COc1cc2c(=O)c3ccccc3oc2c(OC)c1OC [compound 5, 2,3,4-trimethoxy xanthone] | concentration dependent vasodilation |  | blocked the vasodilation activity |  | significant free radical scavenging activity
euxanthone [compound 4] | did not show any significant vasodilation |  | did not have any significant effect |  | 
